Residues, ends and D or L forms follow the SMILES beside them. *: point of attachment. Cbz = O=C(OCc1ccccc1)*
How the values were obtained:
[1] = system: glutamine synthetase (GS); assay: Western blot of endogenous GS level in MM.1S cells; format: cell-based, human; settings: for steady-state level of GS: MM.1S cells, 2 mM glutamine, FIG. 5
Protocol: The consequences of IMiD-enhanced ubiquitylation of GS on endogenous GS levels and stability in MM.1S cells were evaluated. […] The IMiD-triggered decline in GS protein was not due to a reduction in the mRNA level of GS (FIGS. 5 and 6). If IMiDs were added immediately after changing the growth medium, the suppression of GS was more profound, with a maximal effect seen at 0.1 μM pomalidomide (4-amino-thalidomide) (FIG. 7). […] To determine if IMiDs were affecting the stability of GS, cycloheximide chase experiments were performed. As known in the art, GS is an unstable protein (FIG. 9). […] The lenalidomide-induced downregulation of GS was blocked by the proteasome inhibitor MG132 (FIG. 11). Additionally, the lenalidomide-induced downregulation of GS was blunted upon depletion of CRBN by shRNA (FIG. 12).
Western blot analysis. […] After washing twice with ice-cold PBS, the cells were lysed in RIPA buffer (50 mM Tris-HCl, 150 mM NaCl, 1% Triton X-100, 1% Sodium deoxycholate, 0.1% SDS, [pH 7.5]) supplemented with complete protease inhibitor (Roche). Whole-cell protein extracts were prepared and quantified by the Bradford method (Bio-Rad, Hercules, Calif.). Equal amounts of protein (20-80 μg/lane) were electrophoretically separated on SDS-PAGE and transferred to a PVDF membrane. The membranes were blotted with indicated antibodies. Anti-rabbit or anti-mouse antibodies conjugated to horseradish peroxidase (Vector Labs) were used as secondary antibodies, and the signal was detected using a Super Signal West Pico Substrate kit (Fisher Scientific).

[2] = system: MM.1S cells; assay: Immunoblot of apoptosis biomarkers (cleaved caspase-3, PARP) in MM.1S cells; format: cell-based, human; settings: low concentrations of pomalidomide; 0.5 mM glutamine 72 hours; FIG. 26
Protocol: Since the physiological concentration of glutamine in human plasma is 0.5 mM (not the 2 mM that is typically used in cell cultures), the impact of GS depletion on cells grown in 0.5 mM glutamine was evaluated. Cells transduced with GS shRNA-3 in 2 mM glutamine for 7 days and then the cells were shifted to 0.5 mM glutamine.
If IMiDs modulate the level of multiple proteins that are critical for proliferation of myeloma cells, then restoring any one protein would not be expected to allow proliferation in the presence of IMiDs. By contrast, it was reasoned that if degradation of GS contributes to the anti-myeloma effect of IMiDs, that reduction of GS levels by shRNA knockdown would enhance the effect of IMiDs at sub-saturating concentrations, resulting in enhanced efficacy. […]
Western blot analysis. […] Whole-cell protein extracts were prepared and quantified by the Bradford method (Bio-Rad, Hercules, Calif.). […] Anti-rabbit or anti-mouse antibodies conjugated to horseradish peroxidase (Vector Labs) were used as secondary antibodies, and the signal was detected using a Super Signal West Pico Substrate kit (Fisher Scientific).

[3] = clinical; cited from earlier work
[4] = system: GS; settings: five of seven ubiquitin-modified lysine sites; proteasome-inhibited cells; cited from earlier work
[5] = system: endogenous GS; assay: TUBE2 pull-down of ubiquitin conjugates, HEK293T cells; format: cell-based, human; settings: 3 hours, FIG. 4; for GS ubiquitin conjugates: lenalidomide 30 μM or MG132 10 μM
Protocol: TUBE (Tandem Ubiquitin Binding Entities) Pull-down. […] The cells were lysed in immunoprecipitation buffer (10 mM Tris [pH 7.5], 150 mM NaCl, 1% Triton X-100) containing a protease inhibitor cocktail, MG132 and 10 mM N-ethylmaleimide (NEM, Sigma). Whole-cell protein extracts were incubated with 20 μl of TUBE2 agarose beads (Boston Biochem) for 2-4 hours with rotation at 4° C. Beads were washed 3-5 times with lysis buffer, and bound proteins were eluted in SDS sample buffer and subjected to Western blot analysis.

[6] = system: FlagGS; assay: In vivo ubiquitylation assay of FlagGS in HEK293T cells; format: cell-based, human; settings: MG132 10 μM 3 hours, FIG. 13A
Source text: As mentioned above, GS is moderately unstable even in the absence of IMiDs. Specifically, seven lysine residues of GS are modified with ubiquitin in proteasome-inhibited cells, and modification of five of these sites is reduced upon inhibition of CRL activity with the NEDD8 conjugation inhibitor MLN4924. (Kim et al., 2011, Mol Cell., 44:325 and Emanuele et al., 2011, Cell, 147:459, the entire contents of both of which are herein incorporated by reference.) As such, the idea that the constitutive ubiquitylation and degradation of GS may be dependent on CRL4^CRBN was tested. In co-transfection assays, ^HAubiquitin was incorporated into ^FlagGS as determined by immunoprecipitation of ^FlagGS followed by immunoblotting with anti-HA (FIG. 13A). Additionally, ubiquitin-modified ^FlagGS accumulated in cells in which the proteasome was inhibited with the proteasome inhibitor MG132, but was almost entirely absent upon depletion of endogenous CRBN (depletion of CRBN was confirmed by immunoblot; FIG. 13B). […]
In vivo ubiquitylation assay. […] IP washing steps were performed using IP lysis buffer supplemented with 0.5 M NaCl Immunoprecipitated proteins were resolved by SDS/PAGE and analyzed by immunoblotting.

Nc1ccc2c(c1)C(=O)N(C1CCC(=O)NC1=O)C2=O (stereo not shown) [5-amino-thalidomide]
effect on GS protein levels ([1]; MM.1S, FIG. 7): no effect

Nc1cccc2c1C(=O)N(C1CCC(=O)NC1=O)C2=O (stereo not shown) [pomalidomide, 4-amino-thalidomide]
steady-state level of GS ([1]; 24 hours): marked, dose-dependent reduction
concentration giving maximal suppression of GS ([1]; MM.1S, IMiDs added immediately after changing the growth medium, FIG. 7): 0.1 µM
PARP cleavage in GS-depleted cells [2]: further accentuated
PARP cleavage in non-depleted cells [2]: no effect
Cmax [3]: ~275 nM

NS(=O)(=O)OC[C@@H]1C[C@@H](n2ccc3c(N[C@H]4CCc5ccccc54)ncnc32)C[C@@H]1O [MLN4924]
ubiquitin modification of GS lysine residues [4]: reduced

CC(C)C[C@@H](C=O)NC(=O)[C@H](CC(C)C)NC(=O)[C@H](CC(C)C)NC(=O)OCc1ccccc1 [MG132] (Cbz-Leu-Leu-Leu-aldehyde)
GS ubiquitin conjugates [5]: increase
lenalidomide-induced downregulation of GS in presence of proteasome inhibitor ([1]; MM.1S, 0.5 μM MG132, 100 μM lenalidomide, FIG. 11): blocked
ubiquitin-modified FlagGS [6]: accumulated

Nc1cccc2c1CN(C1CCC(=O)NC1=O)C2=O (stereo not shown) [lenalidomide]
total cellular pool of ubiquitin conjugates ([5]; 30 μM): essentially no effect
GS ubiquitin conjugates [5]: increase
steady-state level of GS ([1]; 24 hours): marked, dose-dependent reduction
time to substantial reduction of GS ([1]; MM.1S, 100 μM lenalidomide, FIG. 8): ≤ 4 h
lenalidomide-induced downregulation of GS upon depletion of CRBN by shRNA ([1]; MM.1S, 24 hours, FIG. 12): blunted
Cmax [3]: ~1500 nM
